Data: patent publication US8367639B2, “Hydrogels with covalent and noncovalent crosslinks” (University of Delaware, priority 2005, dated 2013)
Several values for one entry are separate records, joined by “and”; a condition that tells them apart may be missing. Equal entries are not always repeated. Where two headings read alike, the source gives them in different places. Square brackets hold non-standard residues; d marks the D form. Ends that are not written are not given here. βAla = NCCC(=O)O

How the values were obtained:
[1] = Heparin-sepharose affinity chromatography (NaCl elution); format: binding; conditions: 25° C.
Experimental: (§1) Heparin-sepharose affinity liquid chromatography was performed on an ÄKTA Explorer FPLC equipped with a HiTrap Heparin HP column (5 ml, ˜10 mg heparin/ml gel, Amersham Biosciences Corp, Piscataway, N.J.). Surface Plasmon Resonance (SPR). SPR sensorgrams were recorded on a BiaCore 3000 instrument (Biacore Inc, Piscataway, N.J.), employing a high-capacity LMWH surface created on a commercially available streptavidin-coated chip via treatment with biotinylated LMWH.
For heparin affinity chromatography experiments, HBPs were loaded onto a heparin-sepharose column, and then eluted with buffer of increasing NaCl concentration. The concentration of NaCl required for peptide elution is used as an indication of the affinity of the peptide for heparin. The elution of the peptides from the heparin-sepharose column required a salt concentration of 962±10 mM for the PF4ZIP peptide.

[2] = Surface plasmon resonance on LMWH-modified streptavidin chip; format: binding
Experimental: as §1
In SPR experiments, the interaction of the peptides with a LMWH-modified SA chip surface was determined under conditions described in the experimental section. […] In addition, no mass transport limitation or linked reactions were indicated. […] These faster association kinetics, relative to those reported for the ATIII and HIP (Table 2) (see also N. Yamaguchi, B. S. Chae, L. Zhang, K. L. Kiick, E. M. Furst, Rheological characterization of polysaccharide-poly (ethylene glycol) star copolymer hydrogels, Biomacromolecules 6 (4) (2005) 1931-1940) are the primary cause of the lower measured KD values for PF4ZIP-LMWH binding, and the trend of the dissociation constants is consistent with the chromatography results. […] Nevertheless, the equilibrium constants of dissociation determined via both methods are substantially lower than the concentrations employed during hydrogel formation experiments (see below).
The heparin-binding kinetics between LMWH and PF4ZIP were monitored via SPR at several temperatures between 5° C. and 37° C., to determine potential changes in binding kinetics that might alter hydrogel properties under physiological conditions.

[3] = NaCl; 25° C.; previously reported studies; cited from earlier work
[4] = 25° C.; previously reported studies; cited from earlier work

kd ([2]; 5 ° C.)	kd ([2]; 15 ° C.)	Kd ([2]; 25° C.)	kd ([2]; 25° C.)	kd ([2]; 25 ° C. (Table 3))	kd ([2]; 37 ° C.)	Substance	Salt required for elution from heparin column [1]	ka ([2]; 5 ° C.)	ka ([2]; 15 ° C.)	ka ([2]; 25° C.)	ka ([2]; 25 ° C. (Table 3))	ka ([2]; 37 ° C.)	Salt required for elution from heparin column [3]	Kd [4]	ka [4]	kd [4]
3.74 ± 0.17 × 10^−3 s^−1	1.67 ± 0.03 × 10^−3 s^−1	~0.0115 µM and 0.0115 µM	2.56±0.10×10^−3 s^−1	2.56 ± 0.10 × 10^−3 s^−1	2.44 ± 0.08 × 10^−3 s^−1	CGGRMKQLEDKVKKLLKKNYHLENEVARLKKLVG [PF4ZIP]	962 ± 10 mM	1.56 ± 0.01 × 10^5 M^−1s^−1	1.90 ± 0.04 × 10^5 M^−1s^−1	2.24±0.05×10^5 M^−1s^−1	2.24 ± 0.05 × 10^5 M^−1s^−1	5.11 ± 0.02 × 10^5 M^−1s^−1				
						CKbAFAKLAARLYRKA (CK[βAla]FAKLAARLYRKA-NH2; N-terminus assumed; SMILES CC(C)C[C@H](NC(=O)[C@H](CCCCN)NC(=O)[C@H](C)NC(=O)[C@H](Cc1ccccc1)NC(=O)CCNC(=O)[C@H](CCCCN)NC(=O)[C@@H](N)CS)C(=O)N[C@@H](C)C(=O)N[C@@H](C)C(=O)N[C@@H](CCCNC(=N)N)C(=O)N[C@@H](CC(C)C)C(=O)N[C@@H](Cc1ccc(O)cc1)C(=O)N[C@@H](CCCNC(=N)N)C(=O)N[C@@H](CCCCN)C(=O)N[C@@H](C)C(N)=O; listed as Homo sapiens) [ATIII]							594 ± 2 mM	12.9 ± 1.3 µM	1.56 ± 0.06 × 10^2 M^−1s^−1	2.00 ± 0.3 × 10^−3 s^−1
						CRPKAKAKAKAKDQTK [HIP]							687 ± 1 mM	4.2 ± 0.3 µM	1.10 ± 0.08 × 10^3 M^−1s^−1	4.64 ± 0.02 × 10^−3 s^−1
